Results published in ChEMBL document CHEMBL1201862, “PubChem BioAssay data set” (2004).
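Values below derive from 48-hour exposures of cells grown in 96-well plates, with endpoints linearly interpolated between the two concentrations bracketing the appropriate inhibition level. GI50 = concentration required for 50% inhibition of growth.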 Active and inactive are the calls of the source. Cut-off read from the data, not from the text of the source: active = GI50 up to about 1.1 µM and inactive = higher.

How the values were obtained:
Test in all cases: growth of human tumour cells (NCI), 48 h
HT-29 = tested on: HT-29
HCC 2998 = tested on: HCC 2998
NCI/ADR-RES = tested on: NCI/ADR-RES
RXF 393 = tested on: RXF 393
Hs-578T = tested on: Hs-578T
SK-MEL-28 = tested on: SK-MEL-28
CCRF-CEM = tested on: CCRF-CEM
SF-295 = tested on: SF-295
A498 = tested on: A498
MDA-MB-231 = tested on: MDA-MB-231
U-251 = tested on: U-251
PC-3 = tested on: PC-3
SF-268 = tested on: SF-268
HCT-116 = tested on: HCT-116
SF-539 = tested on: SF-539
NCI-H23 = tested on: NCI-H23
ACHN = tested on: ACHN
HOP-62 = tested on: HOP-62
NCI-H226 = tested on: NCI-H226
HCT-15 = tested on: HCT-15
LOX IMVI = tested on: LOX IMVI
Malme-3M = tested on: Malme-3M
T47D = tested on: T47D
IGROV-1 = tested on: IGROV-1
786-0 = tested on: 786-0
A549 = tested on: A549
RPMI-8226 = tested on: RPMI-8226
SK-OV-3 = tested on: SK-OV-3
SK-MEL-2 = tested on: SK-MEL-2
OVCAR-5 = tested on: OVCAR-5
TK-10 = tested on: TK-10
SNB-19 = tested on: SNB-19
NCI-H522 = tested on: NCI-H522
EKVX = tested on: EKVX
UACC-62 = tested on: UACC-62
MOLT-4 = tested on: MOLT-4
SNB-75 = tested on: SNB-75
SN12C = tested on: SN12C
SR = tested on: SR
OVCAR-3 = tested on: OVCAR-3
OVCAR-4 = tested on: OVCAR-4
KM12 = tested on: KM12
MDA-MB-435 = tested on: MDA-MB-435
UACC-257 = tested on: UACC-257
SK-MEL-5 = tested on: SK-MEL-5
SW-620 = tested on: SW-620
UO-31 = tested on: UO-31
HOP-92 = tested on: HOP-92
COLO 205 = tested on: COLO 205
BT-549 = tested on: BT-549
HL-60 = tested on: HL-60
MCF7 = tested on: MCF7
DU-145 = tested on: DU-145
CAKI-1 = tested on: CAKI-1
NCI-H460 = tested on: NCI-H460
K562 = tested on: K562
MDA-N = tested on: MDA-N
OVCAR-8 = tested on: OVCAR-8
M14 = tested on: M14

## Nc1nc(Cl)cc(NCC2(CO)CC(O)C2)n1 (stereo not given)
HT-29
  GI50: > 100 µM (inactive)
HCC 2998
  GI50: > 100 µM (inactive)
NCI/ADR-RES
  GI50: > 100 µM (inactive)
RXF 393
  GI50: > 100 µM (inactive)
Hs-578T
  GI50: > 100 µM (inactive)
SK-MEL-28
  GI50: > 100 µM (inactive)
CCRF-CEM
  GI50: > 100 µM (inactive)
SF-295
  GI50: > 100 µM (inactive)
A498
  GI50: > 100 µM (inactive)
MDA-MB-231
  GI50: > 100 µM (inactive)
U-251
  GI50: > 100 µM (inactive)
PC-3
  GI50: > 100 µM (inactive)
SF-268
  GI50: > 100 µM (inactive)
HCT-116
  GI50: > 100 µM (inactive)
SF-539
  GI50: > 100 µM (inactive)
NCI-H23
  GI50: > 100 µM (inactive)
ACHN
  GI50: > 100 µM (inactive)
HOP-62
  GI50: > 100 µM (inactive)
NCI-H226
  GI50: > 100 µM (inactive)
HCT-15
  GI50: > 100 µM
LOX IMVI
  GI50: > 100 µM (inactive)
Malme-3M
  GI50: > 100 µM (inactive)
T47D
  GI50: > 100 µM (inactive)
IGROV-1
  GI50: > 100 µM (inactive)
786-0
  GI50: > 100 µM (inactive)
A549
  GI50: > 100 µM (inactive)
RPMI-8226
  GI50: > 100 µM (inactive)
SK-OV-3
  GI50: > 100 µM (inactive)
SK-MEL-2
  GI50: > 100 µM (inactive)
OVCAR-5
  GI50: > 100 µM (inactive)
TK-10
  GI50: > 100 µM (inactive)
SNB-19
  GI50: > 100 µM (inactive)
NCI-H522
  GI50: > 100 µM (inactive)
EKVX
  GI50: > 100 µM (inactive)
UACC-62
  GI50: > 100 µM (inactive)
MOLT-4
  GI50: > 100 µM (inactive)
SNB-75
  GI50: > 100 µM (inactive)
SN12C
  GI50: > 100 µM (inactive)
SR
  GI50: > 100 µM (inactive)
OVCAR-3
  GI50: > 100 µM (inactive)
OVCAR-4
  GI50: > 100 µM (inactive)
KM12
  GI50: > 100 µM (inactive)
MDA-MB-435
  GI50: > 100 µM (inactive)
UACC-257
  GI50: > 100 µM (inactive)
SK-MEL-5
  GI50: > 100 µM (inactive)
SW-620
  GI50: > 100 µM (inactive)
UO-31
  GI50: > 100 µM (inactive)
HOP-92
  GI50: > 100 µM (inactive)
COLO 205
  GI50: > 100 µM (inactive)
BT-549
  GI50: > 100 µM (inactive)
HL-60
  GI50: > 100 µM (inactive)
MCF7
  GI50: > 100 µM (inactive)
DU-145
  GI50: > 100 µM (inactive)
CAKI-1
  GI50: > 100 µM (inactive)
NCI-H460
  GI50: > 100 µM (inactive)
K562
  GI50: > 100 µM (inactive)
MDA-N
  GI50: > 100 µM (inactive)
OVCAR-8
  GI50: > 100 µM (inactive)

## CCCCc1cc2c(C)cc(=O)oc2c(O)c1O
HT-29
  GI50: 27.9 µM (inactive)
HCC 2998
  GI50: 3.15 µM (inactive)
NCI/ADR-RES
  GI50: 22.6 µM (inactive)
RXF 393
  GI50: 24.8 µM (inactive)
Hs-578T
  GI50: 22.9 µM (inactive)
SK-MEL-28
  GI50: 37.3 µM (inactive)
CCRF-CEM
  GI50: 21.3 µM (inactive)
SF-295
  GI50: 22.2 µM (inactive)
A498
  GI50: 26.5 µM (inactive)
MDA-MB-231
  GI50: 13.6 µM (inactive)
U-251
  GI50: 23.7 µM (inactive)
PC-3
  GI50: 21.3 µM (inactive)
SF-268
  GI50: 38.8 µM (inactive)
HCT-116
  GI50: 30.5 µM (inactive)
SF-539
  GI50: 21.8 µM (inactive)
NCI-H23
  GI50: 34.9 µM (inactive)
ACHN
  GI50: 33 µM (inactive)
HOP-62
  GI50: 23.3 µM (inactive)
NCI-H226
  GI50: 23.9 µM (inactive)
HCT-15
  GI50: 26.9 µM
LOX IMVI
  GI50: 20.5 µM (inactive)
M14
  GI50: 31.6 µM (inactive)
Malme-3M
  GI50: 27.8 µM (inactive)
T47D
  GI50: 21.7 µM (inactive)
IGROV-1
  GI50: 24.6 µM (inactive)
786-0
  GI50: 33.9 µM (inactive)
A549
  GI50: 33.2 µM (inactive)
RPMI-8226
  GI50: 17.5 µM (inactive)
SK-MEL-2
  GI50: 3.6 µM (inactive)
OVCAR-5
  GI50: 69.7 µM (inactive)
TK-10
  GI50: 85.9 µM (inactive)
SNB-19
  GI50: 37.9 µM (inactive)
NCI-H522
  GI50: 21.5 µM (inactive)
EKVX
  GI50: 52.8 µM (inactive)
MOLT-4
  GI50: 25.2 µM (inactive)
SNB-75
  GI50: 27.1 µM (inactive)
SN12C
  GI50: 32.4 µM (inactive)
SR
  GI50: 18 µM (inactive)
OVCAR-3
  GI50: 29.1 µM (inactive)
OVCAR-4
  GI50: 32.1 µM (inactive)
KM12
  GI50: 25.1 µM (inactive)
MDA-MB-435
  GI50: 30.6 µM (inactive)
UACC-257
  GI50: 20.4 µM (inactive)
SK-MEL-5
  GI50: 20.7 µM (inactive)
SW-620
  GI50: 28.2 µM (inactive)
UO-31
  GI50: 20.3 µM (inactive)
HOP-92
  GI50: 19.4 µM (inactive)
COLO 205
  GI50: 25.8 µM (inactive)
BT-549
  GI50: 14.6 µM (inactive)
HL-60
  GI50: 18.1 µM (inactive)
MCF7
  GI50: 21.4 µM (inactive)
DU-145
  GI50: 32.2 µM (inactive)
CAKI-1
  GI50: 23.4 µM (inactive)
NCI-H460
  GI50: 22.6 µM (inactive)
K562
  GI50: 27.4 µM (inactive)
MDA-N
  GI50: 38.5 µM (inactive)
OVCAR-8
  GI50: 31.6 µM (inactive)
